Source: patent US20130029970A1 (priority 2009, published 2013)

Legend:
[1] = biological target: T1, recombinant human cannabinoid receptor CB2 (Homo sapiens, UniProt P34972); test: Cannabinoid receptor radioligand binding assay, [3H]-CP 55,940 displacement, hCB2
T1 construct: (cDNA clone) CNR0200000
Procedure, shortened: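 Membranes from hCB2-transfected cells, prepared by 1000×g then 40,000×g centrifugation, resuspended in 20 mM HEPES pH 7.4, 5 mM MgCl2, 1 mM EDTA, 10% sucrose.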

human CB1 receptors = biological target: T2, human CB1 receptors (Homo sapiens, UniProt P21554); test: cAMP assay in HEK-293 cells, hCB1 agonist; format: cell-based; details: inhibition of forskolin-stimulated cAMP, HEK-293 cells; for EC50: read-out: hCB1 EC50 (cAMP ag)
T2 construct: (cDNA clone) CNR01L000
Procedure, shortened: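 Stable hCB1 HEK-293 cells suspended in HBSS with 10 mM HEPES and 0.1% fatty acid-free BSA, incubated 30 min at 37° C. with compound plus forskolin (90 uM in the 3× compound solution). Lysed cAMP measured by enzyme-fragment kit; EC50 = 50% inhibition of forskolin-stimulated cAMP (forskolin maximum = 100%), sigmoidal fit.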

human CB2 (hCB2) = biological target: T3, human CB2 (hCB2) (Homo sapiens, UniProt P34972); test: 35S GTPγS binding assay, hCB2 agonist; format: biochemical
T3 construct: (cDNA clone) CNR0200000
Procedure, shortened: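 Membranes (5 μg) from cells transfected with hCB2 cDNA in pcDNA3.1+ incubated with SPA beads, 0.1 nM [35S]GTPγS and 20 uM GDP in 50 mM HEPES pH 7.4, 100 mM NaCl, 5 mM MgCl2, 0.001% saponin, ± test compound. Incubation 90 min at room temperature; bound label read by scintillation counting.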

T1 sequence (P34972 whole entry): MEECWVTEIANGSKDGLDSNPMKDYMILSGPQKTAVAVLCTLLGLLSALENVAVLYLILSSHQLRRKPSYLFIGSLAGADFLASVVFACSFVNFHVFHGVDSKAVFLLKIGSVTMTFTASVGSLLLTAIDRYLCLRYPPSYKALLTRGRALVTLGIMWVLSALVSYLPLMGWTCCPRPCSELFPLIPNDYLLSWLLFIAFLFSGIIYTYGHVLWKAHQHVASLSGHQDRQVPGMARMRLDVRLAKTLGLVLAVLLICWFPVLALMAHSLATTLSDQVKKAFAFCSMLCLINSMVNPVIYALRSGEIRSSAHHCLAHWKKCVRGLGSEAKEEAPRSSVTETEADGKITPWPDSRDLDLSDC
T3 sequence (P34972 whole entry): as above
T2 sequence (P21554 whole entry): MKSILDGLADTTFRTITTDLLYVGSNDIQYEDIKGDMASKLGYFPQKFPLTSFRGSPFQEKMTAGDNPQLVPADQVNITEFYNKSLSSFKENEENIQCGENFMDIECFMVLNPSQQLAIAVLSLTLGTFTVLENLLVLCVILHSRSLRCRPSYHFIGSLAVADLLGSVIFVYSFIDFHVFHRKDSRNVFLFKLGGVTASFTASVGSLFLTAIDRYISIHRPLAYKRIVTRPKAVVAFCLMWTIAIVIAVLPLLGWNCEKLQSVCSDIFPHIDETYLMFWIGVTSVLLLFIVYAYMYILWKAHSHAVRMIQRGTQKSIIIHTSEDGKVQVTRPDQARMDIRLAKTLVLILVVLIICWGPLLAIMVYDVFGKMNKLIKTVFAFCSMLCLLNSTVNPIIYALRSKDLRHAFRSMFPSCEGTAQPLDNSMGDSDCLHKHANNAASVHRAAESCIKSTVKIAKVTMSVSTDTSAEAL

Compound	IC50 [1] [nM]	hCB1 EC50 (cAMP ag, nM) (human CB1 receptors)	EC50 (human CB2 (hCB2)) [nM]	EC50 (human CB1 receptors) [nM]
Cc1cc2cc(C(=O)c3ccc(N(C)C(=O)OC(C)(C)C)cc3)sc2n1CCN1CCOCC1 [Compound 132, tert-butylmethyl(4-(5-methyl-6-(2-morpholinoethyl)-6H-thieno[2,3-b]pyrrole-2-carbonyl)phenyl)carbamate]	1000 to 10000	NS (NS means “Not Significant,” which means less than 30% agonist activity when compared to the positive control.)	100 to 1000	
CNc1ccc(C(=O)c2cc3cc(C)n(CCN4CCOCC4)c3s2)cc1 [Compound 134, (5-methyl-6-(2-morpholinoethyl)-6H-thieno[2,3-b]pyrrol-2-yl)(4-(methylamino)phenyl)methanone]	100 to 1000	NS (NS means “Not Significant,” which means less than 30% agonist activity when compared to the positive control.)	100 to 1000	
COc1ccc(C(=O)c2cc3cc(C)n(CCN4CCOCC4)c3s2)c(Cl)n1 [Compound 137, (2-chloro-6-methoxypyridinyl-3-yl)(5-methyl-6-(2-morpholinoethyl)-6H-thieno[2,3-b]pyrrol-2-yl)methanone]	< 100		< 100	100 to 1000
COc1ccc(C(=O)c2cc3c(Cl)c(C)n(CCN4CCOCC4)c3s2)cc1 [Compound 140, (4-chloro-5-methyl-6-(2-morpholinoethyl)-6H-thieno[2,3-b]pyrrol-2-yl)(4-methoxyphenyl)methanone]	100 to 1000	NS (NS means “Not Significant,” which means less than 30% agonist activity when compared to the positive control.)	< 100	
CCN(CC)CCn1c(C)cc2cc(C(=O)c3ccc(OC)nc3)sc21 [Compound 142, (6-(2-(diethylamino)ethyl)-5-methyl-6H-thieno[2,3-b]pyrrol-2-yl)(6-methoxypyridin-3-yl)methanone]	1000 to 10000	NS (NS means “Not Significant,” which means less than 30% agonist activity when compared to the positive control.)	100 to 1000	
COc1ccc(C(=O)c2cc3cc(C)n(CC4CCOCC4)c3s2)cn1 [Compound 144, (6-methoxypyridin-3-yl)(5-methyl-6-((tetrahydro-2H-pyran-4-yl)methyl)-6H-thieno[2,3-b]pyrrol-2-yl)methanone]	100 to 1000	NS (NS means “Not Significant,” which means less than 30% agonist activity when compared to the positive control.)	< 100	
COc1ccc(C(=O)c2cc3cc(C)n(CC4CCOCC4)c3s2)c(F)c1 [Compound 145, (2-fluoro-4-methoxyphenyl)(5-methyl-6-((tetrahydro-2H-pyran-4-yl)methyl)-6H-thieno[2,3-b]pyrrol-2-yl)methanone]	< 100		< 100	1000 to 10000
CCOc1ccc(C(=O)c2cc3cc(C)n(CCN4CCOCC4)c3s2)cn1 [Compound 150, (6-Ethoxypyridin-3-yl)(5-methyl-6-(2-morpholinoethyl)-6H-thieno[2,3-b]pyrrol-2-yl)methanone]	1000 to 10000	NS (NS means “Not Significant,” which means less than 30% agonist activity when compared to the positive control.)	100 to 1000	
COc1ccc(C(=O)c2cc3cc(C)n(CC4CCC(F)(F)CC4)c3s2)cn1 [Compound 170, (6-((4,4-difluorocyclohexyl)methyl)-5-methyl-6H-thieno[2,3-b]pyrrol-2-yl)(6-methoxypyridin-3-yl)methanone]	100 to 1000		< 100	< 100
